Measurements as given in ChEMBL document CHEMBL1146777, “Interaction with the S1 beta-pocket of urokinase: 8-heterocycle substituted and 6,8-disubstituted 2-naphthamidine urokinase inhibitors” (Bioorg Med Chem Lett, 2004).

Tests used:
[1] = target: Urokinase-type plasminogen activator (Homo sapiens, UniProt P00749)
Description: Binding affinity towards Urokinase-type plasminogen activator (urokinase)

Plasminogen = Plasminogen (Homo sapiens, UniProt P00747); experiment: Binding affinity against plasmin
Prothrombin = Prothrombin (Homo sapiens, UniProt P00734); experiment: Binding affinity against thrombin
[2] = target: Tissue-type plasminogen activator (Homo sapiens, UniProt P00750); experiment: Binding affinity towards tissue type plasminogen activator
Serine protease 1 = Serine protease 1 (Homo sapiens, UniProt P07477); experiment: Binding affinity against trypsin
[3] = Binding affinity against trypsin

Chain of Plasminogen (P00747 97-580 limits assumed): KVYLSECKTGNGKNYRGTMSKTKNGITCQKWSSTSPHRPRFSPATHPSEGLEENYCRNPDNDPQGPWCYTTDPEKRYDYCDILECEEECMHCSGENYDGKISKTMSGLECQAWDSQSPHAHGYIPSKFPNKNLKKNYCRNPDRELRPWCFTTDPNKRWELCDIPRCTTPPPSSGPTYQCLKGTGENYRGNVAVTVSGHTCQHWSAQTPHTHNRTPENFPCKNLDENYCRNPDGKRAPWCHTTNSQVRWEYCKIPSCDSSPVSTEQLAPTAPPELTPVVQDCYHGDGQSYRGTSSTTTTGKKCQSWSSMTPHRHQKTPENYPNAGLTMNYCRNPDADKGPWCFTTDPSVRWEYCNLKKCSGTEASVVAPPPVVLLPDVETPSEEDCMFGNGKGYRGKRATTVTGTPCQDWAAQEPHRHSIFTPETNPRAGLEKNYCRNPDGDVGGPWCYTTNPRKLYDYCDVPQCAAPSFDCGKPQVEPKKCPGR
Chain of Plasminogen (P00747 581-810 limits assumed): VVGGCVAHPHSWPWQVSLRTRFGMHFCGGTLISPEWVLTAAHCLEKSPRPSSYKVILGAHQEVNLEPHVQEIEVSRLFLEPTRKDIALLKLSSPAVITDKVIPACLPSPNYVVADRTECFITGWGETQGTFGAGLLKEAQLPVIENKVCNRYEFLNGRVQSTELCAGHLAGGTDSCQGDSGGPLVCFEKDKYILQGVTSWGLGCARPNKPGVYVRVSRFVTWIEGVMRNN
Chain of Serine protease 1 (P07477 whole entry): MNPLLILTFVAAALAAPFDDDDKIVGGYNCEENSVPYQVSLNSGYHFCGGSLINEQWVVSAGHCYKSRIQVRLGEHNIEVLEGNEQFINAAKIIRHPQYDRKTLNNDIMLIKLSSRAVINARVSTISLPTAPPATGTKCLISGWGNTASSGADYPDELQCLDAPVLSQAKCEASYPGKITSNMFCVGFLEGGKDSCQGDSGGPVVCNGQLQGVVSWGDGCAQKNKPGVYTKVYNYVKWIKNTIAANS
Chain of Tissue-type plasminogen activator (P00750 whole entry): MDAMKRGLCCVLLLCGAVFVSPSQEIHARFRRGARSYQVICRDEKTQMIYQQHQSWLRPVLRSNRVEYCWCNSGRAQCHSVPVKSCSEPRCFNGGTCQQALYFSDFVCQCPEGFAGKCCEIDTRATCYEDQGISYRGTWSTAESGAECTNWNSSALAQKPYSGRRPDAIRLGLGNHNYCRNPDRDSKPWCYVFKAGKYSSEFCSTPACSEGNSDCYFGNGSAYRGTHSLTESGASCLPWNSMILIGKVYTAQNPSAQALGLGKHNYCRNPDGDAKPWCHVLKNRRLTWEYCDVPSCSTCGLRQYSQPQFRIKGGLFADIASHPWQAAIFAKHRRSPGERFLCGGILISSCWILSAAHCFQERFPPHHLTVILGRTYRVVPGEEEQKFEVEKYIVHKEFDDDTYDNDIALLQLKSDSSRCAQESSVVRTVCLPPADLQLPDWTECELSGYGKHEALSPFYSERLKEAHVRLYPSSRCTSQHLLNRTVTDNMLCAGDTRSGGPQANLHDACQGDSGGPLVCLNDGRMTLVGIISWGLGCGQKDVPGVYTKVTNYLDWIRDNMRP

| Ki [1] | Ki (Plasminogen) | Ki (Prothrombin) | Ki [2] | Ki (Serine protease 1) | Ki [3] | SMILES |
| --- | --- | --- | --- | --- | --- | --- |
| 4600 nM |  |  |  |  |  | COc1ccc2ccc(C(=N)N)cc2c1-c1cnn(C)c1 |
|  | 3800 nM | 3200 nM | 24000 nM | 1700 nM |  | N=C(N)c1ccc2cccc(Nc3ncccn3)c2c1 |
|  | 150 nM | 940 nM | 680 nM | 20 nM |  | N=C(N)c1ccc2cc(C(=O)Nc3ccc(CN)cc3)cc(Nc3ncccn3)c2c1 |
| 40 nM | 53 nM | 120 nM | 3300 nM | 11 nM |  | CCSc1cc(-c2cc(C(=O)Nc3ccccc3)cc3ccc(C(=N)N)cc23)co1 |
| 2 nM | 90 nM | 170 nM | 810 nM | 40 nM |  | [H]/N=C(/N)c1ccc2cc(C(=O)Nc3ccccc3)cc(Nc3ncccn3)c2c1 |
|  | 9400 nM | 1300 nM | 18000 nM | 1200 nM |  | COc1ccc2ccc(C(=N)N)cc2c1-c1ccoc1 |
|  |  |  |  |  | 330 nM | N=C(N)c1ccc2cc(C(=O)Nc3ccccc3)ccc2c1 |
|  |  |  | > 100000 nM |  | 7800 nM | N=C(N)c1ccc2ccccc2c1 |
| 106 nM | 400 nM | 360 nM | 870 nM | 30 nM |  | N=C(N)c1ccc2cc(C(=O)Nc3ccccc3)cc(C3CCOC3)c2c1 (stereo unspecified) |
| 91 nM | 320 nM | 130 nM | 180 nM | 45 nM |  | N=C(N)c1ccc2cc(C(=O)Nc3ccccc3)cc(-c3ccoc3)c2c1 |
|  | 6600 nM | 5200 nM | 27000 nM | 200 nM |  | N=C(N)c1ccc2cccc(N)c2c1 |
| 2.1 nM | 38 nM | 610 nM | 1600 nM | 3 nM |  | CCS(=O)(=O)c1cc(-c2cc(C(=O)Nc3cccc(OC4CCCC4)c3)cc3ccc(C(=N)N)cc23)co1 |
|  | 6000 nM | 450 nM | 7400 nM | 320 nM |  | COc1ccc2ccc(C(=N)N)cc2c1C1CCOC1 (stereo unspecified) |
|  | 56 nM | 290 nM | 8300 nM | 3.5 nM |  | CCS(=O)(=O)c1cc(-c2cc(C(=O)Nc3ccccc3)cc3ccc(C(=N)N)cc23)co1 |
|  | 8500 nM | 7100 nM | > 100000 nM | 2700 nM |  | COc1ccc2ccc(C(=N)N)cc2c1-c1cnn(S(C)(=O)=O)c1 |
|  | 190 nM | 1100 nM | 130 nM | 12 nM |  | CC(C)Oc1cccc(NC(=O)c2cc(C3CCOC3)c3cc(C(=N)N)ccc3c2)c1 (stereo unspecified) |
